From PMC8959600 (eLife, 2022)
≈ marks a conversion by molar mass, not a printed value.

Legend:
[1] = paediatric population, Tebipenem-Pivoxil PO; ref Sato et al., 2008; cited from earlier work
[2] = tested on: Shigella flexneri 2457T; assay: Resazurin growth inhibition, dose response (IC50/IC90) in Müller Hinton medium; format: cell-based
Method: We developed a high-throughput screening (HTS) method to identify compounds that could inhibit the growth of Shigella flexneri 2457T in Müller Hinton medium (Sigma Aldrich, UK). We adapted a resazurin reduction protocol from Franzblau et al. as surrogate readout for bacterial viability because it provided a stable signal, a low interference level, and was cost effective ([Franzblau et al., 1998]). Prior to the day of experimentation, one colony was used to inoculate 50 mL Mueller Hinton medium, and the culture was incubated overnight at 37 °C. The next day, 500 μL of the bacterial culture were inoculated into 50 mL fresh Mueller Hinton medium and bacterial growth was measured periodically at 600 nm. When the culture reached OD = 0.4–0.6, the inoculum was diluted to 1 × 10^6 CFU/mL; this bacterial suspension was added to compound pre-dispensed plates for screening.
The assay was performed in 1536-well polystyrene assay plates (HiBase, μClear, Greiner Bio‐One) and used to screen ~1.7 million compounds from (a) GSK naïve chemical diversity, (b) GSK antibacterial programs, and (c) marketed antimicrobial agents. All commercially available chemicals were purchased from either Sigma Aldrich, UK, AK Scientific, or Fischer Chemicals. The GSK compound screening set was sub-selected from the 8 million compound GSK collection using the principles described by Harper and co-workers ([Harper et al., 2004]). The process to generate the structural filters to remove compounds bearing undesirable/reactive chemotypes and/or non-developable physicochemical properties has been described previously by [Chakravorty et al., 2018]. […]. The set of marketed antibacterial agents included most commercial antimicrobial agents.
For screening, plates were prepared by dispensing 50 nl of compound from master plates at 1 mM in each well using a LabCyte Echo system. The final assay volume was 5 μl and the final compound concentration was 10 µM. The 11th and 12th columns were growth controls containing 50 nL of DMSO. The 34th and 35th columns contained 50 nL of Moxifloxacin at 20 μM as negative growth controls. Five µl of bacterial inoculum was dispensed into compound pre-dispensed plates using a Multidrop Combi dispenser (Thermo Scientific). Plates were agitated for 10 s to ensure mixing and incubated at 37 °C overnight (16–17 hr). Following overnight culture, 2 µl resazurin solution (Resazurin tablets for milk testing, BDH) was added to each well and incubated at room temperature in the dark for 3 hr. Fluorescence intensity was measured using an Envision plate reader (PerkinElmer). […] Data were analysed using Base software and statistical cut-off analysis was used for ‘hit’ selection following a standard GSK protocol. To calculate the statistical cut-off, percentage growth inhibition was calculated per well according to the plate controls, these values were aggregated to calculate the robust mean and standard deviation (SD) of the distribution. The robust mean was calculated starting from the median and the MAD of the distribution with an iterative process that aimed to remove outliers. Once the mean and SD were calculated, all compounds above mean + 3 SD were selected as primary hits.
After the initial screen, we generated fresh samples of the primary compound hits and tested them in duplicate against S. flexneri 2457T at 10 μM to confirm activity. The confirmed hit list was narrowed by applying the following filters: a 30% cut-off value, absence of undesirable structural features (e.g. electrophiles, peroxides, and Michael acceptors) and reduced physicochemical risk (maximum five aromatic rings and PFI <8)([Leeson and Young, 2015]). […].

What does the source list for `C[C@@H](O)[C@H]1C(=O)N2C(C(=O)O)=C(SC3CN(C4=NCCS4)C3)[C@H](C)[C@H]12` [Tebipenem]?
AUC0-tlast [1]: 16000 ng·h/mL; Cmax [1]: 7500 ng/mL; MIC ([2]; 2457T, read-out: estimated MIC of S. flexneri 2457T): 0.39 µM; IC90 ([2]; ATCC700930): 0.01 µg/mL (≈ 0.0261 µM)
